In patent US11382873B1, “Oral administration of ketamine” (Vitalis Analgesics LLC, priority 2021, dated 2022):
Like-named read-outs stand apart in the source and are kept apart here.

Experiments:
[1] = cited from earlier work
[2] = cited from earlier work; remark: listed apart in the source
[3] = test system: adult emergency department (ED) patients with acute musculoskeletal pain; assay: Reduction of acute musculoskeletal pain (NRS) in adult ED patients, trial of Example 1/5; settings: NRS 0-10, 60 minutes post medication; doses of Table 1 (dual route ketamine 0.5 mg/kg + aspirin 325 mg; IV ketamine 0.3 mg/kg; IV morphine 0.1 mg/kg; MSIR 15 mg; Percocet 10 mg); comparators from similar trials, same center and protocol; FIG. 1

N[C@@H]1c2cccnc2[C@H](OC(=O)N2CCC(n3c(=O)[nH]c4ncccc43)CC2)CC[C@H]1c1cccc(F)c1F [rimegepant, Rimegepant]
Absolute oral bioavailability ([1]; in vivo, po): approximately 64%
Eliminated in unchanged form ([1]; in vivo): ~77 % of the dose
Major metabolites (i.e., >10%) detected in plasma ([1]; in vivo): no major metabolites
Time of maximum concentration ([1]; oral administration of NURTEC Orally Disintegrating Tablet): 1.5 h

CNC1(c2ccccc2Cl)CCCCC1=O (stereo not drawn) [ketamine]
Bioavailability ([2]; IV): about 100%
Elimination half-life ([2]; in vivo): 2 to 3 h
Bioavailability ([2]; intramuscular injection): about 93%
Delay of serum peak concentration, GI absorption versus direct (oral mucosal) absorption ([2]; ketamine given concurrently through the GI, patent's own reasoning, no PK data shown): 15 to 20 min
Bioavailability ([2]; oral route): 18-20%
Time at which maximal concentrations are reached ([2]; orally): 30 min

CNC1(c2ccccc2Cl)CCCCC1=O (stereo not drawn) [intranasal (nebulized) ketamine, ketamine]
Reduction of acute musculoskeletal pain [3]: about 4 points

CC(C)Cc1ccc(C(C)C(=O)O)cc1 (stereo not drawn) [oral ibuprofen, Ibuprofen]
Reduction of acute musculoskeletal pain [3]: 2 points

CN1CC[C@]23c4c5ccc(O)c4O[C@H]2[C@@H](O)C=C[C@H]3[C@H]1C5 [IV morphine, Morphine]
Reduction of acute musculoskeletal pain [3]: 5.1 points

NC1(c2ccccc2Cl)CCCCC1=O (stereo not drawn) [norketamine]
Plasma levels of the metabolite relative to ketamine ([2]; following oral administration of ketamine): three times higher

CN1CC[C@]23c4c5ccc(O)c4O[C@H]2[C@@H](O)C=C[C@H]3[C@H]1C5.O=S(=O)(O)O [oral morphine, Morphine Sulfate]
Reduction of acute musculoskeletal pain [3]: about 4 points
